In US12414565B2, “Pyridazine (THIO)amides as fungicidal compounds” (Bayer Aktiengesellschaft, priority 2018, dated 2025):

Experiments:
Alternaria brassicae = assay: In vivo preventive test on Alternaria brassicae (leaf spot on radish or cabbage); conditions: 144 h, 500 ppm of active ingredient, preventive spray on radish or cabbage, evaluated 6 days after inoculation, 100% = no disease, read-out: efficacy
Procedure: (§1) The active ingredients were made soluble and homogenized in a mixture of Dimethyl sulfoxide/Acetone/Tween® 80 and then diluted in water to the desired concentration.
The young plants of radish or cabbage were treated by spraying the active ingredient prepared as described above. Control plants were treated only with an aqueous solution of Acetone/Dimethyl sulfoxide/Tween® 80.
After 24 hours, the plants were contaminated by spraying the leaves with an aqueous suspension of Alternaria brassicae spores. The contaminated radish or cabbage plants were incubated for 6 days at 20° C. and at 100% relative humidity.
The test was evaluated 6 days after the inoculation. 0% means an efficacy which corresponds to that of the control plants while an efficacy of 100% means that no disease was observed.

Botrytis cinerea = assay: In vivo preventive test on Botrytis cinerea (grey mould); conditions: 500 ppm of active ingredient, preventive spray on gherkin or cabbage, evaluated 4 to 5 days after inoculation, 100% = no disease, read-out: efficacy
Procedure: as §1
The young plants of gherkin or cabbage were treated by spraying the active ingredient prepared as described above. Control plants were treated only with an aqueous solution of Acetone/Dimethyl sulfoxide/Tween® 80.
After 24 hours, the plants were contaminated by spraying the leaves with an aqueous suspension of Botrytis cinerea spores. The contaminated gherkin plants were incubated for 4 to 5 days at 17° C. and at 90% relative humidity. The contaminated cabbage plants were incubated for 4 to 5 days at 20° C. and at 100% relative humidity.
The test was evaluated 4 to 5 days after the inoculation. 0% means an efficacy which corresponds to that of the control plants while an efficacy of 100% means that no disease was observed.

Sphaerotheca fuliginea = assay: In vivo preventive test on Sphaerotheca fuliginea (powdery mildew on cucurbits); conditions: Podosphaera fuliginea, 192 h; 500 ppm of active ingredient; preventive spray on gherkin; evaluated 8 days after inoculation; 100% = no disease; read-out: efficacy
Procedure: as §1
The young plants of gherkin were treated by spraying the active ingredient prepared as described above. Control plants were treated only with an aqueous solution of Acetone/Dimethyl sulfoxide/Tween® 80.
After 24 hours, the plants were contaminated by spraying the leaves with an aqueous suspension of Sphaerotheca fuliginea spores. The contaminated gherkin plants were incubated for 8 days at 20° C. and at 70-80% relative humidity.
The test was evaluated 8 days after the inoculation. 0% means an efficacy which corresponds to that of the control plants while an efficacy of 100% means that no disease was observed.

Alternaria alternata = Alternaria alternata in vitro cell test; assay type: cell-based; conditions: 120 h, 20 ppm of active ingredient, liquid culture, 5 days incubation, absorbance, read-out: efficacy (inhibition of fungal growth)
Procedure: (§2) [table] Fungicides were solubilized in DMSO and the solution used to prepare the required range of concentrations. The final concentration of DMSO used in the assay was <1%. A spore suspension of A. alternata was prepared and diluted to the desired spore density. Fungicides were evaluated for their ability to inhibit spore germination and mycelium growth in liquid culture assay. The compounds were added in the desired concentration to the culture medium with spores. After 5 days incubation, fungi-toxicity of compounds was determined by spectrometric measurement of mycelium growth. Inhibition of fungal growth was determined by comparing the absorbance values in wells containing the fungicides with the absorbance in control wells without fungicides.

[1] = system: Colletotrichum lindemuthianum; assay: Colletotrichum lindemuthianum in vitro cell test; assay type: cell-based; conditions: 144 h, 20 ppm of active ingredient, liquid culture, 6 days incubation, absorbance, read-out: efficacy (inhibition of fungal growth)
Procedure: as §2, with “was ≤1%.” for “was <1%.”, “of C. lindemuthianum” for “of A. alternata”, “inhibit spores” for “inhibit spore”, “After 6” for “After 5”

Pyrenophora teres = assay: In vivo preventive test on Pyrenophora teres (net blotch on barley); conditions: 240 h, 500 ppm of active ingredient, preventive spray on barley, evaluated 10 days after inoculation, 100% = no disease, read-out: efficacy
Procedure: as §1
The young plants of barley were treated by spraying the active ingredient prepared as described above. Control plants were treated only with an aqueous solution of Acetone/Dimethyl sulfoxide/Tween® 80.
After 24 hours, the plants were contaminated by spraying the leaves with an aqueous suspension of Pyrenophora teres spores. The contaminated barley plants were incubated for 48 hours at 20° C. and at 100% relative humidity and then for 8 days at 20° C. and at 70-80% relative humidity.
The test was evaluated 10 days after the inoculation. 0% means an efficacy which corresponds to that of the control plants while an efficacy of 100% means that no disease was observed.

[2] = Measurement of Log P values by HPLC on reversed phase columns (EEC directive 79/831 Annex V.A8); assay type: physicochemical
Procedure: Measurement of Log P values as provided herein was performed according to EEC directive 79/831 Annex V.A8 by HPLC (High Performance Liquid Chromatography) on reversed phase columns with the following methods: • ^[a]
If more than one Log P value is available within the same method, all the values are given and separated by “+”.
Lambda-max-values were determined using UV-spectra from 200 nm to 400 nm and the peak values of the chromatographic signals

Row | SMILES | pest or weed control at 500 ppm (Alternaria brassicae) [%] | pest or weed control at 500 ppm (Botrytis cinerea) [%] | pest or weed control at 500 ppm (Sphaerotheca fuliginea) [%] | inhibition at 20 ppm (Alternaria alternata) [%] | inhibition at 20 ppm [1] [%] | pest or weed control at 500 ppm (Pyrenophora teres) [%] | further results
1 | COC(=O)N(CC(F)(F)c1ccc(C)cc1C)C(=O)c1cc(Cl)nnc1Oc1cccc(C(F)(F)F)c1 [I-335, methyl N-[6-chloro-3-[3-(trifluoromethyl)phenoxy]pyridazine-4-carbonyl]-N-[2-(2,4-dimethylphenyl)-2,2-difluoro-ethyl]carbamate] | 80 to 89 | 90 to 100 | 80 to 89 | 70 to 79 | 80 to 89 |  | 
2 | CCc1c(Cl)nnc(Oc2cccc(C(F)(F)F)c2)c1C(=O)NCC(F)(F)c1ccc(Cl)cc1 [I-254, 6-chloro-N-[2-(4-chlorophenyl)-2,2-difluoro-ethyl]-5-ethyl-3-[3-(trifluoromethyl)phenoxy]pyridazine-4-carboxamide] | 90 to 100 | 90 to 100 | 90 to 100 | 90 to 100 | 90 to 100 |  | 
3 | Cc1ccc(C(F)(F)CNC(=O)c2cc(Cl)nnc2Oc2cccc(C(F)(F)F)c2)c(C)c1 [I-014, 6-chloro-N-[2-(2,4-dimethylphenyl)-2,2-difluoro-ethyl]-3-[3-(trifluoromethyl)phenoxy]pyridazine-4-carboxamide] | 90 to 100 | 90 to 100 | 90 to 100 | 90 to 100 | 90 to 100 | 70 to 79 | 
4 | Cc1ccc(C(F)(F)CNC(=O)c2cc(C)nnc2Oc2cccc(C3CCC3)c2)c(C)c1 [I-564, 3-(3-cyclobutylphenoxy)-N-[2-(2,4-dimethylphenyl)-2,2-difluoro-ethyl]-6-methyl-pyridazine-4-carboxamide] | 80 to 89 | 90 to 100 | 80 to 89 | 90 to 100 | 70 to 79 |  | 
5 | Cc1ccc(C(F)(F)CNC(=O)c2c(Oc3cccc(C(F)(F)F)c3)nnc(Cl)c2NC2COC2)c(C)c1 [I-408, 6-chloro-N-[2-(2,4-dimethylphenyl)-2,2-difluoro-ethyl]-5-(oxetan-3-ylamino)-3-[3-(trifluoromethyl)phenoxy]pyridazine-4-carboxamide] | 90 to 100 | 90 to 100 | 90 to 100 | 90 to 100 | 90 to 100 | 70 to 79 | 
6 | O=C(NCC(F)(F)c1ccc(Br)cc1Cl)c1cc(C2CC2)nnc1Oc1cccc(C(F)(F)F)c1 [I-312] |  |  |  |  |  |  | LogP ([2]; method [a]): 4.79; LogP ([2]; method [b]): 4.68
7 | CC(=O)c1cc(C(=O)NCC(F)c2ccc(Br)cc2Cl)c(Oc2cccc(C(F)(F)F)c2)nn1 (racemic) [I-605, 6-acetyl-N-[rac-2-(4-bromo-2-chloro-phenyl)-2-fluoro-ethyl]-3-[3-(trifluoromethyl)phenoxy]pyridazine-4-carboxamide] | 90 to 100 | 70 to 79 | 90 to 100 | 90 to 100 | 90 to 100 | 70 to 79 | 
8 | Cc1ccc(C(F)(F)CNC(=O)c2cc(I)nnc2Oc2cccc(C(F)(F)F)c2)c(C)c1 [I-461, N-[2-(2,4-dimethylphenyl)-2,2-difluoro-ethyl]-6-iodo-3-[3-(trifluoromethyl)phenoxy]pyridazine-4-carboxamide] | 90 to 100 | 90 to 100 | 90 to 100 | 90 to 100 | 90 to 100 | 80 to 89 | 
9 | Cc1ccc(C(F)(F)CNC(=O)c2c(Oc3cccc(C4CC4)c3F)nnc(Cl)c2C)c(Br)c1 [I-840] |  |  |  |  |  |  | LogP ([2]; method marked [a], HPLC on reversed phase columns): 4.57^[a]
10 | Cc1ccc(C(F)(F)CNC(=O)c2cc(C)nnc2Cl)c(C)c1 [3-06] |  |  |  |  |  |  | LogP ([2]; method [a]: LC-UV, acidic range, 0.1% formic acid in water / acetonitrile, Table 7, formula (3)): 3.20^[a]
11 | Cc1ccc(C(F)(F)CNC(=O)c2c(Oc3cccc(C(F)(F)F)c3)nnc(Cl)c2NC2CC2C2CC2)c(C)c1 (centres unmarked) [I-812] |  |  |  |  |  |  | LogP ([2]; method [a]): 4.87^[a]
12 | Cc1ccc(C(F)(F)CNC(=O)c2c(Oc3cccc(C(F)(F)F)c3)nnc(Cl)c2I)c(C)c1 [I-020, 6-chloro-N-[2-(2,4-dimethylphenyl)-2,2-difluoro-ethyl]-5-iodo-3-[3-(trifluoromethyl)phenoxy]pyridazine-4-carboxamide] | 90 to 100 | 90 to 100 | 90 to 100 | 90 to 100 | 90 to 100 | 80 to 89 | 
13 | Cc1ccc(CCNC(=S)c2cc(C)nnc2Oc2cccc(C(F)(F)F)c2)c(C)c1 [I-094, N-[2-(2,4-dimethylphenyl)ethyl]-6-methyl-3-[3-(trifluoromethyl)phenoxy]pyridazine-4-carbothioamide] | 90 to 100 | 90 to 100 | 90 to 100 | 80 to 89 | 90 to 100 | 80 to 89 | 
14 | O=C(O)c1ccnnc1Oc1cccc(C(F)(F)F)c1 [1-129] |  |  |  |  |  |  | LogP ([2]; method [a]: LC-UV, acidic range, 0.1% formic acid in water / acetonitrile, Table 3, formula (1)): 1.47^[a]
15 | O=C(NCC(F)(F)c1ccc(Br)cc1Cl)c1cc(Cl)nnc1Oc1cccc(F)c1F [I-530, N-[2-(4-bromo-2-chloro-phenyl)-2,2-difluoro-ethyl]-6-chloro-3-(2,3-difluorophenoxy)pyridazine-4-carboxamide] | 90 to 100 | 90 to 100 | 90 to 100 | 90 to 100 | 90 to 100 | 70 to 79 | 
16 | Cc1cc(C2CC2)ccc1C(F)(F)CNC(=O)c1cc(Cl)nnc1Oc1cccc(C(F)(F)F)c1 [I-240, 6-chloro-N-[2-(4-cyclopropyl-2-methyl-phenyl)-2,2-difluoro-ethyl]-3-[3-(trifluoromethyl)phenoxy]pyridazine-4-carboxamide] | 90 to 100 | 90 to 100 | 90 to 100 | 90 to 100 | 90 to 100 | 70 to 79 | 
17 | Cc1cc(C(=O)NCCc2ccc(C(F)F)cn2)c(Oc2cccc(C(F)(F)F)c2)nn1 [I-525] |  |  |  |  |  |  | LogP ([2]; LogP method [a]): 2.57; LogP ([2]; LogP method [b]): 2.71
18 | CSc1cc(C(=O)NCC(F)(F)c2ccc(C)cc2C)c(Oc2cccc(C(F)(F)F)c2)nn1 [I-767, N-[2-(2,4-dimethylphenyl)-2,2-difluoro-ethyl]-6-methylsulfanyl-3-[3-(trifluoromethyl)phenoxy]pyridazine-4-carboxamide] | 90 to 100 | 90 to 100 | 90 to 100 | 90 to 100 | 90 to 100 | 80 to 89 | 
